Data from US6214860A, “Synergistic antitumor composition containing a naphthalensulphonic acid derivative” (Pharmacia & Upjohn S.p.A., priority 1997, dated 2001).

How the values were obtained:
[1] = system: M5076 murine reticulosarcoma cells; assay: In vivo antitumor activity in mice implanted with M5076 tumor cells; design: species or system Mice C57BL/6; details: VP-16 15 mg/kg iv, days 1, 4, 7 and 11, combination: + PNU 145156E 100 mg/kg ip 2 h prior
Procedure: (§1) The combinations were assayed in vitro on M5076 murine reticulosarcoma cells and in vivo on the same tumor cells implanted intramuscularly.
The antitumor activity was calculated in terms of:
% AUC: inhibition of tumor growth
T/C %: percentage of median increase in survival time
The A.U.C. (area under the curve) of the tumor growth was calculated by using the trapezoidal method, and is referred to the measurement of tumor growth performed one week after the last treatment. The percentage of inhibition (% A.U.C.) was calculated using the following formula: [formula]
The percentage of increase in survival time (T/C% ) was calculated using the following formula: [formula]
Mice were monitored according to guidelines and sacrificed when tumor weight exceeded 10% body weight. Tumor growth delay (TGD) is the time, in days, to reach one gram of tumor weight in treated animals as compared to control animals.
Evaluation of statistical significance was performed as follows: Student's Test for cytotoxic activity, Two-Way Anova for increase in survival time (T/C %) with combined treatment in comparison to the increase exerted separately by the two drugs, Tukey Test for tumor weight reduction (AUC % inhibition) with combined treatment in comparison to the reduction exerted separately by the two drugs.
The criterion for statistical significance was the 0.01 level ( )

[2] = VP-16 15 mg/kg iv, days 1, 4, 7 and 11; combination: + PNU 145156E 100 mg/kg ip 2 h prior
Procedure: Mice C57BL/6 were implanted with M5076 murine reticulosarcoma cells. PNU 145156E was administered ip 2 h prior to cytotoxic drugs administered iv starting treatment 24 h after tumor implant. Treatments were performed at days 1, 4, 7 and 11.
The toxicological evaluation was performed in terms of body weight loss and spleen and liver reduction.

[3] = system: M5076 murine reticulosarcoma cells; assay: In vitro antiproliferative activity (% cell growth vs untreated control); assay type: cell-based
Procedure: as §1

## COc1cc([C@@H]2c3cc4c(cc3[C@@H](O[C@@H]3O[C@@H]5CO[C@@H](C)O[C@H]5[C@H](O)[C@H]3O)[C@H]3COC(=O)[C@H]23)OCO4)cc(OC)c1O [VP-16, etoposide]
[1]
  T/C % (median increase in survival time): 130%
  Tumor weight: 2.86 ± 0.8 gr
[1]; one week after last treatment
  A.U.C. % inhib. (inhibition of tumor growth): 90%
[1]; time to reach one gram
  TGD (tumor growth delay): 12 days
[2]
  Toxic/total mice: 0/9
[3]; Mus musculus, M5076, cytotoxic 4 ng/ml, PNU 145156E 0 ng/ml, 72 h, 37° C., read-out: % cell growth ± S.E.
  activity at 0.004 µg/mL: 96 ± 8%
[3]; Mus musculus, M5076, cytotoxic 20 ng/ml, PNU 145156E 0 ng/ml, 72 h, 37° C., read-out: % cell growth ± S.E.
  activity at 0.02 µg/mL: 77 ± 5%
[3]; Mus musculus, M5076, cytotoxic 100 ng/ml, PNU 145156E 0 ng/ml, 72 h, 37° C., read-out: % cell growth ± S.E.
  activity at 0.1 µg/mL: 15 ± 7%
[3]; cytotoxic 4 ng/ml + PNU 145156E 50000 ng/ml, 72 h, 37° C.
  % cell growth ± S.E.: 91 ± 2%
[3]; cytotoxic 20 ng/ml + PNU 145156E 50000 ng/ml, 72 h, 37° C.
  % cell growth ± S.E.: 66 ± 8%
[3]; cytotoxic 100 ng/ml + PNU 145156E 50000 ng/ml, 72 h, 37° C.
  % cell growth ± S.E.: 9 ± 4%
[3]; in words, PNU 145156E 50000 ng/ml vs 0 ng/ml
  antiproliferative activity in the presence of PNU 145156E: unchanged in the presence of PNU 145156E
